Legend:
Format in all cases: functional
Oryctolagus cuniculus [1] = experiment: Neuromuscular blocking in rabbit model of propofol-induced anesthesia assessed as maximal blockade at 272.7 nmol/kg by train-of-four response method relative to control
Oryctolagus cuniculus [2] = experiment: Neuromuscular blocking in rabbit model of propofol-induced anesthesia assessed as duration of time for maximal blockade at 272.7 nmol/kg by train-of-four response method
Oryctolagus cuniculus [3] = experiment: Neuromuscular blocking in rabbit model of propofol-induced anesthesia assessed as time duration of 25 to 90 percent recovery indices at 272.7 nmol/kg by train-of-four response method
Oryctolagus cuniculus [4] = experiment: Neuromuscular blocking in rabbit model of propofol-induced anesthesia assessed as time duration of 25 to 75 percent recovery indices at 272.7 nmol/kg by train-of-four response method
Oryctolagus cuniculus [5] = experiment: Neuromuscular blocking in rabbit model of propofol-induced anesthesia assessed as onset time at 272.7 nmol/kg by train-of-four response method
Oryctolagus cuniculus [6] = experiment: Neuromuscular blocking in rabbit model of propofol-induced anesthesia assessed as effective blocking time by measuring duration from administration to 25 percent recovery at 272.7 nmol/kg by train-of-four response method

Structure (SMILES) | Emax at 0.2727 µmol/kg (Oryctolagus cuniculus [1]) [%] | Time (Oryctolagus cuniculus [2]) [min] | Time (Oryctolagus cuniculus [3]) [min] | Time (Oryctolagus cuniculus [4]) [min] | Time (Oryctolagus cuniculus [5]) [min] | Time (Oryctolagus cuniculus [6]) [min]
COc1cc2c(cc1OC)[C@@H](Cc1cc(OC)c(OC)c(OC)c1)[N+](C)(CCC(=O)OCC(C)(C)COC(=O)CC[N+]1(C)CCc3cc(OC)c(OC)cc3[C@H]1Cc1cc(OC)c(OC)c(OC)c1)CC2 (stereo partly specified) | 0 | – | – | – | – | –
COc1cc2c(cc1OC)[C@@H](Cc1cc(OC)c(OC)c(OC)c1)[N@+](CCCOC(=O)CC/C=C/CCC(=O)OCCC[N@@+]1(CC3CCC3)CCc3cc(OC)c(OC)cc3[C@H]1Cc1cc(OC)c(OC)c(OC)c1)(CC1CCC1)CC2.[Cl-].[Cl-] | 100 | 8.5 | 15.17 | 8.92 | 2 | 15.38
COc1cc2c(cc1OC)[C@@H](Cc1cc(OC)c(OC)c(OC)c1)[N+](C)(CCCOC(=O)Cc1ccc(CC(=O)OCCC[N+]3(C)CCc4cc(OC)c(OC)cc4[C@H]3Cc3cc(OC)c(OC)c(OC)c3)cc1)CC2.[Cl-].[Cl-] (stereo partly specified) | 100 | 14.83 | 10.83 | 8 | 0.92 | 18.08
C=CC[N+]1(CCCOC(=O)CC/C=C/CCC(=O)OCCC[N+]2(CC=C)CCc3cc(OC)c(OC)cc3[C@H]2Cc2cc(OC)c(OC)c(OC)c2)CCc2cc(OC)c(OC)cc2[C@H]1Cc1cc(OC)c(OC)c(OC)c1 (stereo partly specified) | 92 | – | – | – | – | –
COc1cc2c(cc1OC)[C@@H](Cc1cc(OC)c(OC)c(OC)c1)[N+](C)(CCC(=O)OCCCCCCOC(=O)CC[N+]1(C)CCc3cc(OC)c(OC)cc3[C@H]1Cc1cc(OC)c(OC)c(OC)c1)CC2.O=S(=O)([O-])c1ccccc1.O=S(=O)([O-])c1ccccc1 (stereo partly specified) | 100 | 44.92 | 12.17 | 9.92 | 1 | 49.83
CC[N+]1(CCCOC(=O)CC/C=C/CCC(=O)OCCC[N+]2(CC)CCc3cc(OC)c(OC)cc3[C@H]2Cc2cc(OC)c(OC)c(OC)c2)CCc2cc(OC)c(OC)cc2[C@H]1Cc1cc(OC)c(OC)c(OC)c1.[Cl-].[Cl-] (stereo partly specified) | 100 | 11.75 | 9.67 | 6.42 | 0.75 | 14
COc1cc2c(cc1OC)[C@@H](Cc1cc(OC)c(OC)c(OC)c1)[N+](C)(CCC(=O)OC/C(Br)=C(\Br)COC(=O)CC[N+]1(C)CCc3cc(OC)c(OC)cc3[C@H]1Cc1cc(OC)c(OC)c(OC)c1)CC2.O=S(=O)([O-])c1ccccc1.O=S(=O)([O-])c1ccccc1 (stereo partly specified) | 100 | 8.75 | 10.92 | 6.83 | 1 | 9.75
COc1cc2c(cc1OC)[C@@H](Cc1cc(OC)c(OC)c(OC)c1)[N+](C)(CCCOC(=O)c1ccccc1-c1ccccc1C(=O)OCCC[N+]1(C)CCc3cc(OC)c(OC)cc3[C@H]1Cc1cc(OC)c(OC)c(OC)c1)CC2 (stereo partly specified) | 0 | – | – | – | – | –
COc1cc2c(cc1OC)[C@@H](Cc1cc(OC)c(OC)c(OC)c1)[N+](C)(CCC(=O)OCC(F)(F)COC(=O)CC[N+]1(C)CCc3cc(OC)c(OC)cc3[C@H]1Cc1cc(OC)c(OC)c(OC)c1)CC2 (stereo partly specified) | 0 | – | – | – | – | –
COc1cc2c(cc1OC)[C@@H](Cc1cc(OC)c(OC)c(OC)c1)[N@+](CCCOC(=O)CC/C=C/CCC(=O)OCCC[N@@+]1(CC3CC3)CCc3cc(OC)c(OC)cc3[C@H]1Cc1cc(OC)c(OC)c(OC)c1)(CC1CC1)CC2.[Cl-].[Cl-] | 45 | 2.5 | 7.87 | 5 | 2 | –
COc1cc2c(cc1OC)[C@@H](Cc1cc(OC)c(OC)c(OC)c1)[N@@+](C)(CCCOC(=O)CC/C=C/CCC(=O)OCCC[N@@+]1(C)CCc3cc(OC)c(OC)cc3[C@H]1Cc1cc(OC)c(OC)c(OC)c1)CC2 | 0 | – | – | – | – | –
COc1cc2c(cc1OC)[C@@H](Cc1cc(OC)c(OC)c(OC)c1)[N+](C)(CCC(=O)OCC#CCOC(=O)CC[N+]1(C)CCc3cc(OC)c(OC)cc3[C@H]1Cc1cc(OC)c(OC)c(OC)c1)CC2 (stereo partly specified) | 85 | – | – | – | – | –

— ChEMBL document CHEMBL5576052, “Design, synthesis, and biological evaluation of new bis-benzylisoquinoline-based analogues as potential neuromuscular blocking agents” (Bioorg Med Chem Lett, 2024)
